# Source: patent publication US11918013B2, “Composition for inactivation of gram-positive bacteria and bacterial spores and methods of making and using same” (RESORCIX LTD., priority 2018, dated 2024)
# Read-outs that look alike come from different tables or passages of the source.
# System: Alicyclobacillus acidoterrestris (JCM catalogue number 21547, IAM Culture Collection no. 15086)
# Test: MIC against Alicyclobacillus acidoterrestris in apple juice (OD600 and CFU counting)
# Type: cell-based
# Details: 37° C.; for MIC: Alicyclobacillus acidoterrestris, 100% apple juice
# Method: The fractions collected in Example 4, as well as Fraction 1 and nisin, a preservative presently in common use in the industry, were tested for activity by incubating for the times indicated in the table below with Alicyclobacillus acidoterrestris (JCM catalogue number 21547, IAM Culture Collection no. 15086) in apple juice. The minimum inhibitory concentration (MIC) was determined by optical density measurements at 600 nm, and by counting colony forming units (CFU) as follows: after four days of incubation at 37° C., juice samples were serially diluted in 10-fold increments (10-fold, 100-fold, 1000-fold, etc.) and plated on Potato Dextrose Agar (PDA). Plates were incubated at 45° C. for at least 48 hours, and colonies were counted to determine CFU/ml.
# [1] = 48 h, 2 days of incubation, read-out: MIC (μg/ml) in 100% apple juice 2 days of incubation
# [2] = 72 h, 3 days of incubation, read-out: MIC (μg/ml) in 100% apple juice 3 days of incubation
# [3] = 120 h, 5 days of incubation, read-out: MIC (μg/ml) in 100% apple juice 5 days of incubation
# [4] = 168 h, 7 days of incubation, read-out: MIC (μg/ml) in 100% apple juice 7 days of incubation
Compound,MIC [1],MIC [2],MIC [3],MIC [4],MIC (μg/ml) in 100% apple juice 2 days of incubation (2 days of incubation),MIC (μg/ml) in 100% apple juice 3 days of incubation (3 days of incubation),MIC (μg/ml) in 100% apple juice 5 days of incubation (5 days of incubation),MIC (μg/ml) in 100% apple juice 7 days of incubation (7 days of incubation)
"CC1=CCC[C@@H]2[C@@](C)(CC/C(C)=C/C(=O)O)[C@H](C)CC[C@@]12C (single isomer, unassigned) [Sample 6, Kolavenic acid]",1.25 µg/mL,1.25 µg/mL,1.25 µg/mL,1.25 µg/mL,–,–,–,–
"C=C1CC[C@@H]2C(C)(C)CCC[C@@]2(C)[C@@H]1CC/C(C)=C/C(=O)O (single isomer, unassigned) [Sample 7, copalic acid]",1.25 µg/mL,1.25 µg/mL,1.25 µg/mL,1.25 µg/mL,–,–,–,–
"CC(=O)OC1CC2(C)C(C(=O)O)=CCCC2C(C)(CCc2ccoc2)C1C (stereo not drawn) [Sample 3, 7-α-acetoxyhardwickiic acid]",–,–,–,–,2.5 µg/mL,5 µg/mL,5 µg/mL,5 µg/mL
